Measured values reported in publication PMC7915588, “Polyphyllin D Shows Anticancer Effect through a Selective Inhibition of Src Homology Region 2-Containing Protein Tyrosine Phosphatase-2 (SHP2)” (Molecules, 2021).

Molecular target: T1, SHP2 (Homo sapiens, UniProt Q06124)
T1 construct: gene PTPN11
T1 sequence (Q06124 1-526): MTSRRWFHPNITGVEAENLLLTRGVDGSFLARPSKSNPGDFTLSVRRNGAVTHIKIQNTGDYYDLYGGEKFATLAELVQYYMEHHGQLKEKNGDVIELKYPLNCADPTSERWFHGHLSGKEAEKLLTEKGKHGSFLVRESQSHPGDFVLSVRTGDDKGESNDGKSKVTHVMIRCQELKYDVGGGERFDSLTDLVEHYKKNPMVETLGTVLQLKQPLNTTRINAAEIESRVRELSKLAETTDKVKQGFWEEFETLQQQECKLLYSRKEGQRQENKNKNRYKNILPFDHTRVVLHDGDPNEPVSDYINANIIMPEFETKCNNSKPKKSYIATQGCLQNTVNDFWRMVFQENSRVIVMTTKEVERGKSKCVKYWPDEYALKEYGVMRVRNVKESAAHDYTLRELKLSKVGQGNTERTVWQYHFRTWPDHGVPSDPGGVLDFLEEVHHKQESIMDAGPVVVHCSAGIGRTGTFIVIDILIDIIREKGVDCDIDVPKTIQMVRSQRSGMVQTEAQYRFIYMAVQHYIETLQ
Assay: DiFMUP fluorogenic phosphatase assay, dose-response and Hill plot
Type: biochemical

`C[C@@H]1CC[C@@]2(OC1)O[C@H]1C[C@H]3[C@@H]4CC=C5C[C@@H](O[C@@H]6O[C@H](CO)[C@@H](O[C@@H]7O[C@@H](CO)[C@H](O)[C@H]7O)[C@H](O)[C@H]6O[C@@H]6O[C@@H](C)[C@H](O)[C@@H](O)[C@H]6O)CC[C@]5(C)[C@H]4CC[C@]3(C)[C@H]1[C@@H]2C` [polyphyllin D] was tested. Which IC50 did it give?
Its IC50 is 15.3 µM.
